Test system: 233499-124-R-J3-PDC spheroids with HUVEC/MSC, viability
Experiment: Anticancer human tumor 233499-124-R-J3-PDC patient-derived colon adenocarcinoma cell line growth inhibition [PI3K]
Settings: for IC50: curve of first compound; for viability, T/C: stronger effect = lower value
Description: Combinatorial screen of targeted agents with the PI3K inhibitors inavolisib, alpelisib, duvelisib, and copanlisib in multi-cell type tumor spheroids
A high-throughput screen of multi-cell type tumor spheroids was designed to identify active combinations of targeted small molecules and PI3K pathway inhibitors. Complex spheroids include a stromal component modeled by human endothelial cells (HUVEC) and fibroblasts modeled by human mesenchymal stem cells (MSCs). The concentration ranges selected for each drug and investigational agent were based upon clinically achievable concentrations if the clinical Cmax of the agent was known.
Compounds. The drugs and investigational agents: inavolisib (NSC800729), alpelisib (NSC765974), duvelisib (NSC772469), copanlisib (NSC816437), ipatasertib (NSC767898), afuresertib (NSC778305), talazoparib (NSC767125), sapanisertib (NSC764658), selumetinib (NSC741078), tovorafenib (DAY101, NSC766906), vemurafenib (NSC761431), ravoxertinib (NSC781343), sotorasib (NSC818433), MRTX1133 (NSC 836407), abemaciclib (NSC 768073), palbociclib (NSC758247), venetoclax (NSC 766270), SY5609 (NSC837396), enzalutamide (NSC755605), and darolutamide (NSC825331), were obtained from the National Cancer Institute (NCI) Developmental Therapeutics Program Chemical Repository. The FDA-approved anticancer drug set is available from the NCI Developmental Therapeutics Program. […] The stock solutions were prepared in dimethyl sulfoxide (DMSO, Sigma-Aldrich, St. Louis, MO, cat. D2650) at 800-fold the tested concentration and stored at -70 degrees C prior to their use. All drugs and investigational agents were tested over a range starting from a high concentration at or near the clinical Cmax and decreasing in half-log increments. If the clinical Cmax for an agent had not been determined, the highest concentration tested was 10 microM.
Cell Culture. All cells were maintained in an incubator at 37 degrees C and 5% CO2 with 95% humidity. The PDC lines were cultured according to standard operating procedures established by the NCI PDMR (https://pdmr.cancer.gov/sops/default.htm). All PDCs were thawed and cultured in Matrigel-coated flasks prepared with a working solution of 1X Ham's F-12 nutrient mix, without supplementation (Invitrogen, Waltham, MA, cat. 11765054), 100 U/mL penicillin-streptomycin (Invitrogen, cat. 15140122), and 2.5% Matrigel (Corning Inc., Corning, NY, cat. 354248) for the first three passages. The 354836-022-R-J1-PDC, 475296-252-R-J1-PDC, and 997726-040-R-J2-PDC lines were cultured in 6A media, which includes advanced DMEM/F-12 (Thermo Fisher Scientific, cat. 12634028), 10 mM HEPES (Thermo Fisher Scientific, cat. 15630080), 1X GlutaMAX supplement (Thermo Fisher Scientific, cat. 35050061), 0.1 mg/mL primocin (InvivoGen, San Diego, CA, cat. ant-pm-2), 10% defined fetal bovine serum, heat inactivated (HyClone Laboratories Inc., Logan, UT, cat. SH30070.03HI), 50% L-WRN conditioned media (ATCC, cat. CRL-3276), 1.25 mM N-Acetyl-L-cysteine (Sigma-Aldrich, cat. A9165), 10 mM nicotinamide (Sigma-Aldrich, cat. N0636), 1X B-27 supplement (Thermo Fisher Scientific, cat. 17504044), 1X N-2 supplement (Thermo Fisher Scientific, cat. 17502048), and 10 microM Y-27632 dihydrochloride (Tocris Bioscience, Bristol, United Kingdom, cat. 1254). The 624824-186-R-J2-PDC line was cultured in 6C/Colon 1B media, which includes all 6A media components plus 50 ng/mL human EGF recombinant protein (Thermo Fisher Scientific, cat. PHG0311). […]

[1] = second compound 0.00316 µM, first compound 0.0316 µM
[2] = second compound 0.00316 µM, first compound 0.1 µM
[3] = second compound 0.00316 µM, first compound 0.316 µM
[4] = second compound 0.00316 µM, first compound 1 µM
[5] = second compound 0.00316 µM, first compound 3.16 µM
[6] = second compound 0.00316 µM, first compound 10 µM
[7] = second compound 0.01 µM, first compound 0.0316 µM
[8] = second compound 0.01 µM, first compound 0.1 µM
[9] = second compound 0.01 µM, first compound 0.316 µM
[10] = second compound 0.01 µM, first compound 1 µM
[11] = second compound 0.01 µM, first compound 3.16 µM
[12] = second compound 0.01 µM, first compound 10 µM
[13] = second compound 0.0316 µM, first compound 0.0316 µM
[14] = second compound 0.0316 µM, first compound 0.1 µM
[15] = second compound 0.0316 µM, first compound 0.316 µM
[16] = second compound 0.0316 µM, first compound 1 µM
[17] = second compound 0.0316 µM, first compound 3.16 µM
[18] = second compound 0.0316 µM, first compound 10 µM
[19] = second compound 0.1 µM, first compound 0.0316 µM
[20] = second compound 0.1 µM, first compound 0.1 µM
[21] = second compound 0.1 µM, first compound 0.316 µM
[22] = second compound 0.1 µM, first compound 1 µM
[23] = second compound 0.1 µM, first compound 3.16 µM
[24] = second compound 0.1 µM, first compound 10 µM
[25] = second compound 0.316 µM, first compound 0.0316 µM
[26] = second compound 0.316 µM, first compound 0.1 µM
[27] = second compound 0.316 µM, first compound 0.316 µM
[28] = second compound 0.316 µM, first compound 1 µM
[29] = second compound 0.316 µM, first compound 3.16 µM
[30] = second compound 0.316 µM, first compound 10 µM
[31] = second compound 1 µM, first compound 0.0316 µM
[32] = second compound 1 µM, first compound 0.1 µM
[33] = second compound 1 µM, first compound 0.316 µM
[34] = second compound 1 µM, first compound 1 µM
[35] = second compound 1 µM, first compound 3.16 µM
[36] = second compound 1 µM, first compound 10 µM
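Note: spheroids exposed to agents for seven days before readout.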
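Throughout, for viability, T/C: percent viability relative to DMSO vehicle control taken as 100%.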

C#Cc1c(F)ccc2cc(O)cc(-c3ncc4c(N5CC6CCC(C5)N6)nc(OCC56CCCN5CC(F)C6)nc4c3F)c12 (stereo not drawn) + CC(Nc1ccc2c(c1)OCCn1cc(N3C(=O)OCC3C(F)F)nc1-2)C(N)=O
IC50 (second compound 0.00316 µM): > 10 µM
IC50 (second compound 0.01 µM): 2.92 µM
IC50 (second compound 0.0316 µM): > 10 µM
IC50 (second compound 0.1 µM): > 10 µM
IC50 (second compound 0.316 µM): 5.35 µM
IC50 (second compound 1 µM): 0.716 µM
viability, T/C [1]: 83.7%
viability, T/C [2]: 76%
viability, T/C [3]: 92%
viability, T/C [4]: 110%
viability, T/C [5]: 95.3%
viability, T/C [6]: 85.5%
viability, T/C [7]: 99.1%
viability, T/C [8]: 105%
viability, T/C [9]: 91.4%
viability, T/C [10]: 98.7%
viability, T/C [11]: 46.5%
viability, T/C [12]: 46%
viability, T/C [13]: 93.1%
viability, T/C [14]: 102%
viability, T/C [15]: 85.4%
viability, T/C [16]: 85.4%
viability, T/C [17]: 95.8%
viability, T/C [18]: 77.4%
viability, T/C [19]: 99.8%
viability, T/C [20]: 81%
viability, T/C [21]: 83.9%
viability, T/C [22]: 60.2%
viability, T/C [23]: 70.8%
viability, T/C [24]: 49.6%
viability, T/C [25]: 77.2%
viability, T/C [26]: 78.2%
viability, T/C [27]: 63.2%
viability, T/C [28]: 75.1%
viability, T/C [29]: 59.2%
viability, T/C [30]: 38%
viability, T/C [31]: 67.8%
viability, T/C [32]: 58.6%
viability, T/C [33]: 58.6%
viability, T/C [34]: 44%
viability, T/C [35]: 44.4%
viability, T/C [36]: 35.2%

C=CC(=O)N1CCN(c2nc(=O)n(-c3c(C)ccnc3C(C)C)c3nc(-c4c(O)cccc4F)c(F)cc23)C(C)C1 (stereo not drawn) + CC(Nc1ccc2c(c1)OCCn1cc(N3C(=O)OCC3C(F)F)nc1-2)C(N)=O
IC50 (second compound 0.00316 µM): > 10 µM
IC50 (second compound 0.01 µM): > 10 µM
IC50 (second compound 0.0316 µM): > 10 µM
IC50 (second compound 0.1 µM): > 10 µM
IC50 (second compound 0.316 µM): > 10 µM
IC50 (second compound 1 µM): > 10 µM
viability, T/C [1]: 101%
viability, T/C [2]: 87.5%
viability, T/C [3]: 87.9%
viability, T/C [4]: 113%
viability, T/C [5]: 100%
viability, T/C [6]: 100%
viability, T/C [7]: 85.9%
viability, T/C [8]: 88.8%
viability, T/C [9]: 77.5%
viability, T/C [10]: 95.6%
viability, T/C [11]: 97.5%
viability, T/C [12]: 86.2%
viability, T/C [13]: 85.8%
viability, T/C [14]: 106%
viability, T/C [15]: 91.4%
viability, T/C [16]: 92.8%
viability, T/C [17]: 93.5%
viability, T/C [18]: 84.6%
viability, T/C [19]: 103%
viability, T/C [20]: 94.5%
viability, T/C [21]: 91.3%
viability, T/C [22]: 83%
viability, T/C [23]: 87%
viability, T/C [24]: 57.1%
viability, T/C [25]: 92.7%
viability, T/C [26]: 80.5%
viability, T/C [27]: 80.8%
viability, T/C [28]: 77.4%
viability, T/C [29]: 71%
viability, T/C [30]: 85.5%
viability, T/C [31]: 61%
viability, T/C [32]: 67.7%
viability, T/C [33]: 44.3%
viability, T/C [34]: 56.3%
viability, T/C [35]: 63.6%
viability, T/C [36]: 66.9%

CC(Cn1ccc(-c2ccc(C#N)c(Cl)c2)n1)NC(=O)c1cc(C(C)O)[nH]n1 (stereo not drawn) + CC(Nc1ccc2c(c1)OCCn1cc(N3C(=O)OCC3C(F)F)nc1-2)C(N)=O
IC50 (second compound 0.00316 µM): > 10 µM
IC50 (second compound 0.01 µM): > 10 µM
IC50 (second compound 0.0316 µM): > 10 µM
IC50 (second compound 0.1 µM): > 10 µM
IC50 (second compound 0.316 µM): 7.39 µM
IC50 (second compound 1 µM): > 10 µM
viability, T/C [1]: 97.5%
viability, T/C [2]: 84.3%
viability, T/C [3]: 86.6%
viability, T/C [4]: 83.1%
viability, T/C [5]: 90.8%
viability, T/C [6]: 97.7%
viability, T/C [7]: 99.5%
viability, T/C [8]: 77.7%
viability, T/C [9]: 96.2%
viability, T/C [10]: 83.4%
viability, T/C [11]: 82.5%
viability, T/C [12]: 76.8%
viability, T/C [13]: 92.1%
viability, T/C [14]: 82.4%
viability, T/C [15]: 67.9%
viability, T/C [16]: 93.9%
viability, T/C [17]: 101%
viability, T/C [18]: 83%
viability, T/C [19]: 83.1%
viability, T/C [20]: 89.3%
viability, T/C [21]: 90%
viability, T/C [22]: 80.3%
viability, T/C [23]: 74.4%
viability, T/C [24]: 71%
viability, T/C [25]: 76%
viability, T/C [26]: 63.7%
viability, T/C [27]: 70.5%
viability, T/C [28]: 73.6%
viability, T/C [29]: 90.6%
viability, T/C [30]: 41.2%
viability, T/C [31]: 62%
viability, T/C [32]: 62%
viability, T/C [33]: 47.4%
viability, T/C [34]: 62.6%
viability, T/C [35]: 66%
viability, T/C [36]: 54.6%

Cn1nccc1Nc1nccc(-c2ccn(C(CO)c3ccc(Cl)c(F)c3)c(=O)c2)n1 (stereo not drawn) + CC(Nc1ccc2c(c1)OCCn1cc(N3C(=O)OCC3C(F)F)nc1-2)C(N)=O
IC50 (second compound 0.00316 µM): > 10 µM
IC50 (second compound 0.01 µM): 9.87 µM
IC50 (second compound 0.0316 µM): > 10 µM
IC50 (second compound 0.1 µM): > 10 µM
IC50 (second compound 0.316 µM): 0.694 µM
IC50 (second compound 1 µM): 0.211 µM
viability, T/C [1]: 81.3%
viability, T/C [2]: 95.2%
viability, T/C [3]: 80.5%
viability, T/C [4]: 104%
viability, T/C [5]: 52.7%
viability, T/C [6]: 58.2%
viability, T/C [7]: 83%
viability, T/C [8]: 81.6%
viability, T/C [9]: 74.3%
viability, T/C [10]: 74.9%
viability, T/C [11]: 59.5%
viability, T/C [12]: 50.2%
viability, T/C [13]: 95.6%
viability, T/C [14]: 100%
viability, T/C [15]: 71.8%
viability, T/C [16]: 55.7%
viability, T/C [17]: 79.3%
viability, T/C [18]: 66%
viability, T/C [19]: 76.3%
viability, T/C [20]: 77.3%
viability, T/C [21]: 82.3%
viability, T/C [22]: 63.2%
viability, T/C [23]: 53.1%
viability, T/C [24]: 48.1%
viability, T/C [25]: 78.3%
viability, T/C [26]: 73%
viability, T/C [27]: 58.6%
viability, T/C [28]: 45.9%
viability, T/C [29]: 39.6%
viability, T/C [30]: 36.3%
viability, T/C [31]: 55.8%
viability, T/C [32]: 58.6%
viability, T/C [33]: 43.5%
viability, T/C [34]: 41.6%
viability, T/C [35]: 38.9%
viability, T/C [36]: 27.8%

From PubChem BioAssay AID1963984 (Molecular Pharmacology Branch, DTP, NCI, 2024)
